From ChEMBL document CHEMBL1201862, “PubChem BioAssay data set” (2004)
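Cultured in 96-well plates, cells were exposed to test compound for 48 hours across five concentrations. GI50 marks 50% less growth.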 Activity calls are given as the source filed them. Rule as the data show it: active = GI50 up to about 1.1 µM and inactive = higher.

Assays:
Assay in all cases: NCI-60 cell line screen, 48 h
HCC 2998 = system: HCC 2998
PC-3 = system: PC-3
SK-MEL-28 = system: SK-MEL-28
TK-10 = system: TK-10
A498 = system: A498
BT-549 = system: BT-549
SNB-75 = system: SNB-75
DU-145 = system: DU-145
ACHN = system: ACHN
SR = system: SR
SK-MEL-2 = system: SK-MEL-2
UACC-62 = system: UACC-62
MDA-N = system: MDA-N
HL-60 = system: HL-60
SF-268 = system: SF-268
HT-29 = system: HT-29
OVCAR-8 = system: OVCAR-8
LOX IMVI = system: LOX IMVI
CAKI-1 = system: CAKI-1
SW-620 = system: SW-620

Measured: GI50

O=C1/C(=C/c2ccc(O)c(O)c2)CCC/C1=C\c1ccc(O)c(O)c1
inactive: HCC 2998 4.12 µM | PC-3 3.98 µM | SK-MEL-28 3.94 µM | TK-10 3.79 µM | A498 7.64 µM | BT-549 4.74 µM | SNB-75 3.4 µM | DU-145 4.5 µM | ACHN 2.69 µM | SR 1.58 µM | SK-MEL-2 3.42 µM | UACC-62 2.86 µM | MDA-N 3.13 µM | HL-60 3.24 µM | SF-268 3.02 µM | HT-29 8.09 µM | OVCAR-8 2.07 µM | LOX IMVI 2.11 µM | CAKI-1 3.68 µM | SW-620 2.45 µM

CC(=O)NC(C)(C)C1CCC(C)CC1 (stereo unspecified)
inactive: HCC 2998 > 100 µM | PC-3 > 100 µM | SK-MEL-28 > 100 µM | TK-10 > 100 µM | A498 > 100 µM | BT-549 > 100 µM | SNB-75 > 100 µM | DU-145 > 100 µM | ACHN > 100 µM | SR > 100 µM | UACC-62 > 100 µM | MDA-N > 100 µM | HL-60 > 100 µM | SF-268 > 100 µM | HT-29 > 100 µM | OVCAR-8 > 100 µM | LOX IMVI > 100 µM | CAKI-1 > 100 µM | SW-620 > 100 µM

C=CCn1c(=O)c(C)cn(/C(=C/C(=O)OCC)C(=O)OCC)c1=O
inactive: HCC 2998 17.4 µM | PC-3 14.8 µM | SK-MEL-28 15.9 µM | TK-10 15.4 µM | A498 22.1 µM | BT-549 16.2 µM | SNB-75 11.1 µM | DU-145 40.7 µM | ACHN 9.08 µM | SR 5.33 µM | SK-MEL-2 23.2 µM | UACC-62 16.5 µM | MDA-N 13.9 µM | HL-60 2.19 µM | SF-268 18.9 µM | HT-29 12.9 µM | OVCAR-8 17.6 µM | LOX IMVI 6.28 µM | CAKI-1 1.85 µM | SW-620 3.85 µM

O=C1OCC(O)=C1C(c1ccc(Cl)cc1)c1cc2c(cc1O)OCO2 (stereo unspecified)
inactive: HCC 2998 > 100 µM | PC-3 > 100 µM | SK-MEL-28 > 100 µM | TK-10 > 100 µM | A498 > 100 µM | BT-549 > 100 µM | SNB-75 > 100 µM | DU-145 > 100 µM | ACHN > 100 µM | SR > 100 µM | SK-MEL-2 > 100 µM | UACC-62 > 100 µM | MDA-N > 100 µM | HL-60 > 100 µM | SF-268 > 100 µM | HT-29 > 100 µM | LOX IMVI > 100 µM | CAKI-1 > 100 µM | SW-620 > 100 µM

Cc1c(C)c2c(c(N)c1C#N)C(=O)N(OS(=O)(=O)c1ccccc1)C2=O
inactive: HCC 2998 38.7 µM | PC-3 35.6 µM | SK-MEL-28 24.5 µM | TK-10 18 µM | A498 > 100 µM | BT-549 19.9 µM | SNB-75 32.5 µM | DU-145 11.6 µM | ACHN 18.5 µM | SR 27 µM | SK-MEL-2 49 µM | UACC-62 23.9 µM | MDA-N 29.8 µM | HL-60 30.1 µM | SF-268 95.1 µM | OVCAR-8 17.8 µM | LOX IMVI 26.2 µM | CAKI-1 20.8 µM | SW-620 20.8 µM

CCC(=O)Nc1ccc(N2C(=O)/C(=C/c3ccc(O)c(OC)c3)N=C2c2ccccc2)cc1
inactive: HCC 2998 21 µM | PC-3 16.5 µM | SK-MEL-28 25.6 µM | A498 15.8 µM | BT-549 20.4 µM | SNB-75 > 100 µM | DU-145 28.7 µM | ACHN 23.3 µM | SR 13.2 µM | SK-MEL-2 23.6 µM | UACC-62 26.4 µM | MDA-N 31.3 µM | HL-60 24 µM | SF-268 27 µM | HT-29 33.7 µM | OVCAR-8 44.5 µM | LOX IMVI 36.7 µM | CAKI-1 17.3 µM | SW-620 51.2 µM

C/C(=N/NC(=O)c1ccccc1Nc1ccccc1C(=O)N/N=C(\C)c1ccc(C)cc1)c1ccc(C)cc1
inactive: HCC 2998 10.9 µM | PC-3 41.7 µM | SK-MEL-28 > 100 µM | TK-10 18.6 µM | A498 > 100 µM | BT-549 > 100 µM | SNB-75 > 100 µM | DU-145 > 100 µM | ACHN 23.9 µM | SR > 100 µM | SK-MEL-2 > 100 µM | UACC-62 31.8 µM | MDA-N > 100 µM | HL-60 > 100 µM | SF-268 > 100 µM | HT-29 > 100 µM | OVCAR-8 > 100 µM | CAKI-1 > 100 µM | SW-620 > 100 µM

C=CCn1c(N)c(C#N)c(C#N)c1CCC
inactive: HCC 2998 > 100 µM | PC-3 > 100 µM | TK-10 > 100 µM | A498 > 100 µM | BT-549 > 100 µM | SNB-75 25 µM | DU-145 > 100 µM | ACHN > 100 µM | SR 22.5 µM | SK-MEL-2 > 100 µM | UACC-62 > 100 µM | MDA-N > 100 µM | HL-60 > 100 µM | SF-268 > 100 µM | HT-29 > 100 µM | OVCAR-8 > 100 µM | LOX IMVI > 100 µM | CAKI-1 > 100 µM | SW-620 > 100 µM

CC1C2CC(CC2(C)O)C1(C)C (stereo unspecified)
inactive: HCC 2998 > 100 µM | PC-3 > 100 µM | SK-MEL-28 > 100 µM | TK-10 > 100 µM | A498 > 100 µM | BT-549 > 100 µM | SNB-75 > 100 µM | DU-145 > 100 µM | ACHN > 100 µM | SR > 100 µM | UACC-62 > 100 µM | MDA-N > 100 µM | HL-60 > 100 µM | SF-268 > 100 µM | HT-29 > 100 µM | OVCAR-8 > 100 µM | CAKI-1 > 100 µM | SW-620 > 100 µM

CCOC(=O)C1=C(Cl)c2cccnc2C1=O
inactive: HCC 2998 61.7 µM | PC-3 > 100 µM | SK-MEL-28 > 100 µM | TK-10 > 100 µM | A498 > 100 µM | BT-549 45.4 µM | SNB-75 13 µM | DU-145 21.5 µM | ACHN 35.4 µM | SR 11.4 µM | SK-MEL-2 > 100 µM | UACC-62 > 100 µM | MDA-N 34.9 µM | HL-60 > 100 µM | SF-268 55.2 µM | HT-29 81.7 µM | LOX IMVI 23.7 µM | CAKI-1 54.6 µM | SW-620 30.3 µM
